Earlier results in patent US9375441B2, “Lactulose for bowel evacuation” (Cumberland Pharmaceuticals, priority 2011, dated 2016).

Assays:
[1] = tested on: patients at increased risk for colorectal cancer
[2] = not given; remark: listed apart in the source
[3] = tested on: patients with a history of chronic constipation

patients with diarrhea sometime during the bowel preparation, % ([1]; 12 g lactulose powder once per day from 48 hours before MR colonography): 38%
patients with diarrhea sometime during the bowel preparation, number ([1]; 12 g lactulose powder once per day from 48 hours before MR colonography, low-fiber diet, oral gadolinium contrast): 77
patients in whom diarrhea occurred just prior to imaging, number ([1]; of the 77 patients with diarrhea): 48
solubility in water: freely soluble
state in which oral doses reach the colon ([2]; no hydrolysing enzyme in human gastrointestinal tissue): virtually unchanged
absorption from the gastrointestinal tract ([2]; oral): poorly absorbed
SMILES: OC[C@H]1O[C@@H](O[C@@H]2[C@@H](CO)O[C@](O)(CO)[C@H]2O)[C@H](O)[C@@H](O)[C@H]1O [lactulose, 4-O-b-D-Galactopyranosyl-D-fructofuranose]
number of bowel movements per day and number of days on which bowel movements occur [3]: increases
